Assay [1] relates to guinea pig ileum. From the text:
(§1) A change of one unit of pA2 value represents an order of magnitude change in potency.
(§2) On isolated smooth muscles, agonist potency is given as percent of BK potency; antagonist potency is given as pA2, and is underlined. In blood pressure assays, the number is the dose of peptide in micrograms that causes 50% reduction in the effect of BK intraarterially administered as a bolus mixture in a 500 g male rat; Ag indicates unquantitated agonist activity; Ant indicates unquantitated antagonist activity.

Assay [2] deals with isolated rat uterus.
Excerpt: as §1, §2

The target in assay [3] is T1, Human B2 receptors (Homo sapiens, UniProt P30411).
T1 construct: expressed in transfected cells; membranes used
T1 sequence (P30411 1-364 isoform P30411-2): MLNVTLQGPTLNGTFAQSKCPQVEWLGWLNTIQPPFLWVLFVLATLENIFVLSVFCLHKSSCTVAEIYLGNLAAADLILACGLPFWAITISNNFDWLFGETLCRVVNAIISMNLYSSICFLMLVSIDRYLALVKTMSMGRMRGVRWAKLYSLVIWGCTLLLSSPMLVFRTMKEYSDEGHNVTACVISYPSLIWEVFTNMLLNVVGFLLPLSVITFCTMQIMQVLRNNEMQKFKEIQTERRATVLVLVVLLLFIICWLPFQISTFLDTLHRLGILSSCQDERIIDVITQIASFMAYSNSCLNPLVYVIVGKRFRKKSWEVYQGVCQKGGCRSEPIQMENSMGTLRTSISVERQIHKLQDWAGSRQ
In words: Human B2 binding, cloned receptor in CHO cell membranes, 3H-bradykinin. From the text: Human B2 receptors were cloned and expressed in Chinese hamster ovary cells. RNA was isolated from human lung fibroblasts (CCD-16 LU obtained from the ATCC) using the method of Chirgwin et al (Biochemistry 18:5294 (1979)). The RNA was transcribed into cDNA using MMLV reverse transcriptase, the primer […] and the procedure of Maniatis (Molecular Cloning Cold Spring Harbor Laboratory (1982)). The human B2 receptor cDNA was selectively amplified using nested PCR. The first round PCR used the two primers […] and […] and Taq DNA polymerase (Promega). Twenty-five rounds of PCR were done using the following conditions: 94° C., 1 minute for denaturation, 50° C., 1 minute for annealing followed by 72° C., 3 minutes for extension. Excess primers were removed with a Centricon 30 miniconcentrator. A portion of this first round reaction was used as a template in a second round of PCR using the following primers […] and […]. The number of rounds of PCR and the conditions were the same as those used for the first round. The DNA obtained after this second round was digested with the restriction enzymes Hind III and Xba I using standard methodology. Cesium chloride-purified pRc/CMV (Invitrogen) was also digested with Hind III and Xba I using standard methodology. The products of the two digests were resolved on a 1% low melt agarose gel. The human B2 receptor DNA (approximately 1.1 kb) and the pRc/CMV DNA (approximately 5.5 kb) were excised from the gel. The gel slices containing these DNAs were heated at 65° C. and aliquots combined in a reaction containing T4 DNA ligase. The reaction was incubated overnight at 15° C.
An aliquot of this reaction was used to transform frozen competent E. coli DH5α cells (GibcoBRL). Transformants containing the human B2 receptor DNA were selected on LB+amp plates. One of the transformants was selected and the sequence of the human B2 receptor DNA insert determined using the Sequenase enzyme (United States Biochemical) according to the manufacturer's instructions. This sequence was compared to the sequence of Hess et al (Biochemical and Biophysical Research Communications 184:260 1992)). […] The human BK2 receptor-pRc/CMV plasmid was transfected into CHO-k1 cells using the Lipofectamine reagent (GibcoBRL).
Cells containing the receptor were grown to confluence and harvested by scraping into PBS and homogenized. Membranes were prepared by centrifugation in 25 mM TES pH6.8 containing 1 mM 1.10 Phenanthroline. The final pellet was resuspended in assay buffer (25 mM TES, 1 mM 1.10 Phenanthroline, 1 mM DTT, […] Captopril, 0.1% BSA pH=6.8) and frozen. […] Incubation was carried out at room temperature for 45 min. The assay was terminated by filtration through a polyethylenimine soaked G-A filter. Radioactivity was measured on a Wallac 1450 MicroBeta LSC.
The Kd for the receptor was determined by kinetic analysis of on and off rates utilizing a single exponential decay off rate. Ki 's for compounds were calculated using the following equation: Ki =IC50 /(1+[L]/Kd), where L=free ligand concentration.

The target in assay [4] is T2, B1 receptors (Oryctolagus cuniculus, UniProt P48748).
T2 construct: The thorax was opened and the thoracic aorta carefully removed; from tissue; host or cells: rabbit thoracic aorta spiral strips
T2 sequence (P48748 1-352): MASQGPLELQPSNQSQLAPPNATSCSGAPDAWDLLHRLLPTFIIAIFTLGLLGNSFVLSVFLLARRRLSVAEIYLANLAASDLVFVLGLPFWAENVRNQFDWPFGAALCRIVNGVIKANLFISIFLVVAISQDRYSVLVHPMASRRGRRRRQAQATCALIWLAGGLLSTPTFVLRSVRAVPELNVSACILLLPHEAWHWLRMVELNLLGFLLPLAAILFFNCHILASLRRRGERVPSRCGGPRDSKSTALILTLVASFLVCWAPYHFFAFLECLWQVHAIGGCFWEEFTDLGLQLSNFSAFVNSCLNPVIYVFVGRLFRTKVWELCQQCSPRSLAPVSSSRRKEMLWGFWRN
In words: B1 receptor bioassay, rabbit aorta strips contracted with des-Arg9-BK. The class given is cell-based. The settings on record: 50% reduction of sustained contraction to 10^-7 M des-Arg9-BK; read-out: Rabbit Aorta p IC50 B1 receptors (converted). On the procedure: Male New Zealand white rabbits, weight range 2-3 kg, were killed by an overdose of pentobarbital i.v. The thorax was opened and the thoracic aorta carefully removed. […] The tissues were placed under 1 gm isometric tension and allowed to equilibrate for 1H. At time 1h, a concentration-effect curve was constructed to the selective B1 agonist des-Arg^9 -BK. This was repeated at time 3 hours. […] Once the contraction was sustained, the compound to be assayed was applied to the tissue bath in a cumulative manner. The concentration of the compound which produced a 50% reduction of the sustained contraction was calculated. The negative logarithm of this concentration was calculated and expressed as the […].

Setting [5] is: CHO clone S34f membranes, 0.3 nM 3H-Bradykinin, room temperature 45 min, read-out: Human Receptor Clone B2 receptor binding (Ki) (converted).

Molecules are shown by their SMILES. Like-named read-outs stand apart in the source and are kept apart here. Square brackets hold non-standard residues; d marks the D form. Peptide text beside a SMILES is read from it. Oic = O=C(O)[C@@H]1C[C@@H]2CCCC[C@@H]2N1; dIgl = N[C@@H](C(=O)O)C1Cc2ccccc2C1; Igl = N[C@H](C(=O)O)C1Cc2ccccc2C1; Hyp = O=C(O)[C@@H]1C[C@@H](O)CN1; NMeF = CN[C@@H](Cc1ccccc1)C(=O)O; 2Thi = N[C@@H](Cc1cccs1)C(=O)O

As a reminder, the Ki is a dissociation constant, usually derived from enzyme kinetics or from competition with a known ligand. Usually IC50 stands for the concentration at which inhibition is half-maximal.

On to `N=C(N)NCCC[C@@H](N)C(=O)N[C@@H](CCCNC(=N)N)C(=O)N1CCC[C@H]1C(=O)N1C[C@H](O)C[C@H]1C(=O)NCC(=O)N[C@@H](Cc1cccs1)C(=O)N[C@@H](CO)C(=O)N(CC(=O)N1[C@H](C(=O)N[C@@H](CCCNC(=N)N)C(=O)O)C[C@@H]2CCCC[C@@H]21)C1Cc2ccccc2C1` [Compound 16, DArg-Arg-Pro-Hyp-Gly-Thi-Ser-Nigb-Oic-Arg], for which the “Ileum Activity, antagonist potency given as pA2” value (“Ileum Activity” below) in assay [1] is 7.0. The “Uterus Activity, antagonist potency given as pA2” value (from here on “Uterus Activity”) in assay [2] is listed as 6.8. In addition, the Ki in assay [3] (setting [5]) was 0.309 nM.
As for `N=C(N)NCCC[C@H](NC(=O)[C@@H]1C[C@@H]2CCCC[C@@H]2N1C(=O)[C@H](NC(=O)[C@H](CO)NC(=O)[C@@H](NC(=O)CNC(=O)[C@@H]1C[C@@H](O)CN1C(=O)[C@@H]1CCCN1C(=O)[C@H](CCCNC(=N)N)NC(=O)[C@@H](CCCNC(=N)N)NC(=O)C1=CN2CCC1CC2)C1Cc2ccccc2C1)C1Cc2ccccc2C1)C(=O)O` [Compound 3, Dhg-DArg-Arg-Pro-Hyp-Gly-Iglb-Ser-DIg lb-Oic-Arg], the “Ileum Activity” value in assay [1] is recorded as 7.6. For the same compound, the “Uterus Activity” value in assay [2] is listed as 7.4. Moreover, in assay [4], the IC50 was 1170 nM. In assay [3] (setting [5]), the Ki was 0.00141 nM.
Regarding `Cc1ccc(C[C@@H](NC(=O)CNC(=O)[C@@H]2C[C@@H](O)CN2C(=O)[C@@H]2CCCN2C(=O)[C@H](CCCNC(=N)N)NC(=O)[C@H](N)CCCNC(=N)N)C(=O)N[C@@H](CO)C(=O)N[C@@H](C(=O)N2[C@H](C(=O)N[C@@H](CCCNC(=N)N)C(=O)O)C[C@@H]3CCCC[C@@H]32)C2Cc3ccccc3C2)c(C)c1` [Compound 27, DArg-Arg-Pro-Hyp-Gly-DDMF-Ser-DIglb-Oic-Arg], the “Ileum Activity” value in assay [1] is 6.9. For the same compound, the “Uterus Activity” value in assay [2] amounted to 8.0. In addition, the IC50 in assay [4] is more than 10000 nM. The Ki in assay [3] (setting [5]) is 0.178 nM.
Turning to `N=C(N)NCCC[C@@H](N)C(=O)N[C@@H](CCCNC(=N)N)C(=O)N1CCC[C@H]1C(=O)N1C[C@H](O)C[C@H]1C(=O)NCC(=O)N[C@H](Cc1cccs1)C(=O)N[C@@H](CO)C(=O)N[C@@H](C(=O)N1[C@H](C(=O)N[C@@H](CCCNC(=N)N)C(=O)O)C[C@@H]2CCCC[C@@H]21)C1Cc2ccccc2C1` [Compound 31, DArg-Arg-Pro-Hyp-Gly-DThi-Ser-DIglb-Oic-Arg], in assay [4], the IC50 is more than 10000 nM. The Ki in assay [3] was 0.01 nM.
As to `N=C(N)NCCC[C@H](NC(=O)[C@@H]1C[C@@H]2CCCC[C@@H]2N1C(=O)[C@H](NC(=O)[C@H](CO)NC(=O)[C@H](Cc1cccs1)NC(=O)CNC(=O)[C@@H]1C[C@@H](O)CN1C(=O)[C@@H]1CCCN1C(=O)[C@H](CCCNC(=N)N)NC(=O)[C@@H](CCCNC(=N)N)NC(=O)CC12CC3CC(CC(C3)C1)C2)C1Cc2ccccc2C1)C(=O)O` [Compound 56, Aaa-DArg-Arg-Pro-Hyp-Gly-Thi-Ser-DIglb-Oic-Arg], in assay [1], the “Ileum Activity” value is given as 7.8. Besides, in assay [2], the “Uterus Activity” value came to 7.7. In addition, in assay [4], the IC50 was 692 nM. In addition, the Ki in assay [3] (setting [5]) is 0.398 nM.
With `N=C(N)NCCC[C@@H](N)C(=O)N[C@@H](CCCNC(=N)N)C(=O)N1CCC[C@H]1C(=O)N1C[C@H](O)C[C@H]1C(=O)NCC(=O)N[C@@H](Cc1cccs1)C(=O)N[C@@H](CO)C(=O)N[C@@H](C(=O)N1Cc2ccccc2C[C@H]1C(=O)N[C@@H](CCCNC(=N)N)C(=O)O)C1Cc2ccccc2C1` [Compound 22, DArg-Arg-Pro-Hyp-Gly-Thi-Ser-DIglb-Tic-Arg], the “Ileum Activity” value in assay [1] is listed as 6.8. In assay [2], the “Uterus Activity” value stood at 7.0. In addition, the IC50 in assay [4] was 1780 nM. Besides, the Ki in assay [3] (setting [5]) is 0.0126 nM.
For `COc1cc(C=CC(=O)N[C@H](CCCNC(=N)N)C(=O)N[C@@H](CCCNC(=N)N)C(=O)N2CCC[C@H]2C(=O)N2C[C@H](O)C[C@H]2C(=O)NCC(=O)N[C@@H](Cc2cccs2)C(=O)N[C@@H](CO)C(=O)N[C@@H](C(=O)N2[C@H](C(=O)N[C@@H](CCCNC(=N)N)C(=O)O)C[C@@H]3CCCC[C@@H]32)C2Cc3ccccc3C2)cc(OC)c1O` [Compound 60, Sin-DArg-Arg-Pro-Hyp-Gly-Thi-Ser-DIglb-Oic-Arg] the same measures were 7.3, 8.3, 2090 nM and 0.0692 nM.
`N=C(N)NCCC[C@H](NC(=O)[C@@H]1C[C@@H]2CCCC[C@@H]2N1C(=O)[C@H](NC(=O)[C@H](CO)NC(=O)[C@H](Cc1cccs1)NC(=O)CNC(=O)[C@@H]1C[C@@H](O)CN1C(=O)[C@@H]1CCCN1C(=O)[C@@H](N)CCCNC(=N)N)C1Cc2ccccc2C1)C(=O)O` [Compound 5, Arg-Pro-Hyp-Gly-Thi-Ser-DIglb-Oic-Arg] (H-RP[Hyp]G[2Thi]S[dIgl][Oic]R-OH): in assay [1], the “Ileum Activity” value is recorded as 7.7. Further, in assay [4], the IC50 was 1550 nM. Moreover, the Ki in assay [3] (setting [5]) is 0.0692 nM.
For `N=C(N)NCCC[C@H](NC(=O)[C@@H]1C[C@@H]2CCCC[C@@H]2N1C(=O)[C@H](NC(=O)[C@H](COS(=O)(=O)O)NC(=O)[C@H](Cc1cccs1)NC(=O)CNC(=O)[C@@H]1C[C@@H](O)CN1C(=O)[C@@H]1CCCN1C(=O)[C@H](CCCNC(=N)N)NC(=O)[C@@H](CCCNC(=N)N)NC(=O)C12CC3CC(CC(C3)C1)C2)C1Cc2ccccc2C1)C(=O)O` [Compound 61, Aca-DArg-Arg-Pro-Hyp-Gly-Thi-Ser(SO)-DIglb-Oic-Arg] the same measures were 7.5, 4170 nM and 4.07 nM.
For `CN(C(=O)[C@H](CCCNC(=N)N)NC(=O)[C@H](N)CCCNC(=N)N)[C@@H](Cc1ccccc1)C(=O)N1C[C@H](O)C[C@H]1C(=O)NCC(=O)N[C@H](C(=O)N[C@@H](CO)C(=O)N[C@@H](C(=O)N1[C@H](C(=O)N[C@@H](CCCNC(=N)N)C(=O)O)C[C@@H]2CCCC[C@@H]21)C1Cc2ccccc2C1)C1Cc2ccccc2C1` [Compound 45, DArg-Arg-NMF-Hyp-Gly-Iglb-Ser-DIglb-Oic-Arg] (H-[dR]R[NMeF][Hyp]G[Igl]S[dIgl][Oic]R-OH), in assay [4], the IC50 was 2880 nM. Besides, the Ki in assay [3] (setting [5]) is 0.141 nM.

(Values after patent publication US5648336A (University of Colorado, priority 1994, dated 1997).)
